# From patent publication US11903955B2, “Methods of treating heart failure with reduced ejection fraction” (ASTRAZENECA AB, priority 2019, dated 2024)
# Where “and” joins values, the source holds several entries; their conditions need not be identical. Equal values may be shown once. Read-outs that look alike come from different tables or passages of the source. Marks after values point to notes of the source that are not given here.
# Experiments:
# [1] = test system: patients with chronic heart failure with reduced ejection fraction (LVEF ≤40%); details: for Any serious adverse event (including death), % of patients / Any serious adverse event (including death), No. of patients: safety population
# Source text: All the patients provided written informed consent and entered a 14-day enrollment period during which the trial inclusion and exclusion criteria were checked and baseline information gathered, including findings from clinical examination and laboratory measurements. […] Investigators used an interactive voice or web response system to obtain treatment assignment. Randomization was stratified based on a diagnosis of type 2 diabetes, defined as either an established diagnosis or a HbA1c level of 6.5% or greater (≥48 mmol/mol) confirmed in a central laboratory at screening. Patients were evaluated at 14 days and 60 days after randomization, with a focus on assessment of heart failure and volume status, adverse events, and checking renal function and potassium. Further study visits took place at 4 months and at 4-month intervals thereafter. The protocol required that study drug be permanently discontinued if pregnancy or diabetic ketoacidosis occurred.
# KCCQ total symptom score was analyzed as a composite rank-based endpoint, incorporating patient vital status at 8 months along with change in score from baseline to 8 months in surviving patients, using the rank analysis of covariance method, with a corresponding win ratio used to estimate the magnitude of treatment effect.^17 The consistency of the treatment effect among 14 prespecified subgroups were assessed. The prespecified safety analyses included: serious adverse events; adverse events associated with discontinuation of study treatment; “adverse events of interest” i.e., volume depletion, renal events, major hypoglycemic events, bone fractures, diabetic ketoacidosis, amputations; Fournier's gangrene; and laboratory findings of note. […] Fisher's exact test was used to compare rates of adverse events. Analyses were performed using Stata, version 15 (College Station Tex., USA) and R version 3.5.1 (R Foundation for Statistical Computing, Vienna, Austria).
# [2] = test system: patients with chronic heart failure with reduced ejection fraction (LVEF ≤40%); details: for NT-proBNP, between-treatment difference: baseline to 8 months; for decrease in NT-proBNP: between baseline and 8 months
# Procedure: Data from all randomly assigned patients were included in the analyses of the primary and secondary outcomes, according to the intention-to-treat principle. Baseline characteristics were summarized as means and standard deviations, medians and inter-quartile ranges, or percentages. Longitudinal measures, such as glycated hemoglobin level (HbA1c) and body weight, were analyzed using mixed model for repeated measurements, and the least-squares mean differences between treatment groups were estimated, together with 95% confidence intervals. Time-to-event data were evaluated with the use of Kaplan-Meier estimates and Cox proportional hazards models, stratified by diabetes status, with history of heart failure hospitalization and treatment as fixed-effect factors (for the renal endpoint, baseline eGFR was included instead of history of heart failure hospitalization); hazard ratios, 95% confidence intervals, and two-sided P values were calculated with the use of the Cox models.
# [3] = test system: patients with HFrEF; details: for Mild hyperkalemia (>5.5 mmol/L), HR (95% CI) / Moderate/Severe hyperkalemia (>6.0 mmol/L), HR (95% CI): dapagliflozin vs placebo; for Mild hyperkalemia (>5.5 mmol/L), No. events/patients: excluding baseline K+ > 5.5; for Moderate/Severe hyperkalemia (>6.0 mmol/L), No. events/patients: excluding baseline K+ > 6.0
# Source text: Hyperkalemia often limits the use of mineralocorticoid receptor antagonists (MRAs) in patients with heart failure and reduced ejection fraction (HFrEF), denying these patients a life-saving therapy.
# [4] = test system: patients with chronic heart failure with reduced ejection fraction (LVEF ≤40%); details: for Change in KCCQ total symptom score at 8 mo., Win ratio (95% CI): >1 indicates superiority; for KCCQ-TSS increase, points more with dapagliflozin compared to placebo: baseline to 8 months
# Source text: The KCCQ was completed electronically by patients, without assistance by site study staff (as validated), and evaluated at randomization, 4-months, and 8-months. The KCCQ is a 23-item, self-administered disease-specific instrument that quantifies symptoms (frequency, severity and recent change), physical function, quality of life, and social function over the prior 2 weeks. In the KCCQ, the total symptom score (TSS) quantifies the symptom frequency and severity, KCCQ clinical summary score (KCCQ-CSS) includes the physical function and symptoms domains, and KCCQ overall summary score (OSS) is derived from the following domains (total symptom score, physical function, quality of life and social function). […] Scores are transformed to a range of 0-100, in which higher scores reflect better health status.
# In this study, patients were divided into three subgroups, based on the tertiles of baseline KCCQ-TSS (which was the KCCQ domain prespecified as the secondary endpoint): (i) ≤65.6, (ii) 65.7-87.5, (iii) >87.5 points.
# The differences between treatment groups in mean KCCQ-TSS, CSS, and OSS at 4 months and 8 months in surviving patients were analyzed, using a mixed model for repeated measurements and estimated the least-squares mean differences between treatment groups adjusted for baseline values. Responder analyses were conducted examining proportions of patients with a deterioration, and clinically important improvements in KCCQ at 8 months. Established, clinically meaningful thresholds for KCCQ (≥5 point (at least small), ≥10 point (moderate), and ≥15 point (large) change) were used for all responder analyses across the KCCQ domains.
# Odds ratios to estimate differences between treatment groups, and their corresponding 95% confidence intervals and 2-sided p-values were estimated from logistic regression models (which included treatment group, stratification variable (T2D at randomization) and baseline KCCQ values); the models used imputed data accounting for missing KCCQ values and estimates were combined using Rubin's rules.
# [5] = baseline to 8 month, dapagliflozin vs placebo
# [6] = dapagliflozin vs placebo, at 8 months
# [7] = individuals with diabetes, dapagliflozin vs placebo
# [8] = individuals without diabetes, dapagliflozin vs placebo
smiles,measurement,setting,value
"CCOc1ccc(Cc2cc([C@@H]3O[C@H](CO)[C@@H](O)[C@H](O)[C@H]3O)ccc2Cl)cc1 [Dapagliflozin, dapagliflozin]","Any serious adverse event (including death), % of patients",[1]; No T2DM (N = 1295),(34.6) %
same,"Any serious adverse event (including death), No. of patients",[1]; No T2DM (N = 1295),448 patients
same,"Any serious adverse event (including death), % of patients",[1]; T2DM (N = 1073),(41.7) %
same,"Any serious adverse event (including death), No. of patients",[1]; T2DM (N = 1073),447 patients
same,"Adverse events of interest: Fournier gangrene, % of patients","[1]; human, in vivo",(0) %
same,"Adverse events of interest: Fournier gangrene, No. of patients","[1]; human, in vivo",0 patients
same,"Adverse events of interest: Fracture, % of patients","[1]; human, in vivo",(2.1) %
same,"Amputation, No. (%)","[1]; human, in vivo",13 (0.5) No. (%)
same,"Diabetic Ketoacidosis, No. (%)","[1]; human, in vivo",3 (0.1) No. (%)
same,"Discontinuation of study drug due to adverse event, No. (%)","[1]; human, in vivo",111 (4.7) No. (%)
same,"Fournier gangrene, No. (%)","[1]; human, in vivo",0 (0) No. (%)
same,"Fracture, No. (%)","[1]; human, in vivo",49 (2.1) No. (%)
same,"Major hypoglycemia, No. (%)","[1]; human, in vivo",4 (0.2) No. (%)
same,"Serious adverse events related to volume depletion, patients (%)","[1]; human, in vivo",29 dapagliflozin treated patients (1.2%) patients (%)
same,"Serious renal adverse events, patients (%)","[1]; human, in vivo",38 dapagliflozin treated patients (1.6%) patients (%)
same,"Fournier gangrene, No. (%)",[1]; in vivo,No case
same,"amputation, cases",[1]; in vivo,twelve
same,"amputation, patients",[1]; in vivo,one
same,"Any serious adverse event (including death), No. (%)",[1]; safety population n = 2368,895 (37.8) No. (%)
same,Change in systolic BP,[2]; baseline to 8 month (Visit 6),−1.92 ± 14.92 mmHg
same,Change in weight,[2]; baseline to 8 month (Visit 6),-0.88 ± 3.86 kg
same,Change in HbA1c,"[2]; baseline to 8 month (Visit 6), only patients with diabetes at baseline",−0.21 ± 1.14%
same,"Systolic BP, between group difference (95% CI)",[2]; [5],"−1.41 (−2.31 to −0.52), p = 0.002 mmHg"
same,"Weight, between group difference (95% CI)",[2]; [5],"−0.98 (−1.22 to −0.74), p < 0.001 kg"
same,"HbA1c, between group difference (95% CI)","[2]; baseline to 8 month, dapagliflozin vs placebo, only patients with diabetes at baseline","−0.25 (−0.36 to −0.14), p < 0.001%"
same,Change in potassium,[2]; in vivo,0.07 ± 0.53
same,"Potassium, between group difference (95% CI)",[2]; in vivo,"−0.02 (−0.05 to 0.01), p = 0.298"
same,"NT-proBNP, between-treatment difference","[2]; participants with diabetes, dapagliflozin vs placebo",−333 (−562 to −104) pg/ml
same,decrease in NT-proBNP,[2]; participants with diabetes,257 ± 2502 pg/mL
same,"NT-proBNP, between-treatment difference","[2]; patients without diabetes, dapagliflozin vs placebo",−278 (−485 to −71) pg/ml
same,decrease in NT-proBNP,[2]; patients without diabetes,144 ± 2286 pg/mL
same,"Mild hyperkalemia (>5.5 mmol/L), rate per 100 py",[3]; All patients,8.1 per 100 py
same,"Moderate/Severe hyperkalemia (>6.0 mmol/L), rate per 100 py",[3]; All patients,1.0 per 100 py
same,"Mild hyperkalemia (>5.5 mmol/L), HR (95% CI)",[3]; All patients,0.93 (0.78-1.11)
same,"Moderate/Severe hyperkalemia (>6.0 mmol/L), HR (95% CI)",[3]; All patients,0.64 (0.42-0.99)
same,"Mild hyperkalemia (>5.5 mmol/L), No. events/patients",[3]; All patients,243/2292
same,"Moderate/Severe hyperkalemia (>6.0 mmol/L), No. events/patients",[3]; All patients,34/2358
same,"Mild hyperkalemia (>5.5 mmol/L), rate per 100 py",[3]; MRA treated at baseline,8.6 per 100 py
same,"Moderate/Severe hyperkalemia (>6.0 mmol/L), rate per 100 py",[3]; MRA treated at baseline,0.9 per 100 py
same,"Mild hyperkalemia (>5.5 mmol/L), HR (95% CI)",[3]; MRA treated at baseline,0.86 (0.70-1.05)
same,"Moderate/Severe hyperkalemia (>6.0 mmol/L), HR (95% CI)",[3]; MRA treated at baseline,0.50 (0.29-0.85)
same,"Moderate/Severe hyperkalemia (>6.0 mmol/L), HR (95% CI)","[3]; MRA treated at baseline, listed as dapagliflozin","0.50 (0.29, 0.85)"
same,"Mild hyperkalemia (>5.5 mmol/L), No. events/patients",[3]; MRA treated at baseline,180/1632
same,"Moderate/Severe hyperkalemia (>6.0 mmol/L), No. events/patients",[3]; MRA treated at baseline,21/1683
same,"Mild hyperkalemia (>5.5 mmol/L), rate per 100 py",[3]; No MRA at baseline,7.1 per 100 py
same,"Moderate/Severe hyperkalemia (>6.0 mmol/L), rate per 100 py",[3]; No MRA at baseline,1.4 per 100 py
same,"Mild hyperkalemia (>5.5 mmol/L), HR (95% CI)",[3]; No MRA at baseline,1.20 (0.84-1.72)
same,"Moderate/Severe hyperkalemia (>6.0 mmol/L), HR (95% CI)",[3]; No MRA at baseline,1.17 (0.52-2.62)
same,"Mild hyperkalemia (>5.5 mmol/L), No. events/patients",[3]; No MRA at baseline,63/660
same,"Moderate/Severe hyperkalemia (>6.0 mmol/L), No. events/patients",[3]; No MRA at baseline,13/675
same,"Mild hyperkalemia, patients (%)",[3]; patients treated with an MRA,180 (11%) patients (%)
same,"moderate/severe hyperkalemia, patients (%)",[3]; patients treated with an MRA,21 (1.2%) patients (%)
same,Change in KCCQ total symptom score at 8 mo.,[4]; No T2DM (N = 1298),5.4 ± 17.7
same,Change in KCCQ total symptom score at 8 mo.,[4]; T2DM (N = 1075),7.0 ± 19.7
same,"KCCQ total symptom score, mean difference dapagliflozin vs placebo","[4]; all patients, at 8 months",2.8 points
same,patients with deterioration (≥5 point decline) in KCCQ-TSS,"[4]; all patients, at 8 months",25% and 25.3%
same,patients with five or greater point (at least small) improvement in KCCQ-TSS,"[4]; all patients, at 8 months",58% and 58.3%
same,Change in KCCQ total symptom score at 8 mo.,"[4]; all patients, baseline to month 8, mean ± SD",6.1 ± 18.6 points
same,Change in KCCQ total symptom score at 8 mo.,"[4]; all patients, baseline to month 8, mean ± SD, listed as dapagliflozin",6.1±18.6 points
same,"mean KCCQ-CSS, points higher than placebo",[4]; at 4 months,1.8 points
same,"mean KCCQ-OSS, points higher than placebo",[4]; at 4 months,1.7 points
same,"mean KCCQ-TSS, points higher than placebo",[4]; at 4 months,1.9 points
same,"mean KCCQ-CSS, points higher than placebo",[4]; at 8 months,2.5 points
same,"mean KCCQ-OSS, points higher than placebo",[4]; at 8 months,2.3 points
same,number needed to treat (NNT) for at least small (≥5 point) improvement in KCCQ-TSS,[4]; at 8 months,14 (10-23)
same,number needed to treat (NNT) for large (≥15 point) improvement in KCCQ-TSS,[4]; at 8 months,18 (12-35)
same,number needed to treat (NNT) for moderate (≥10 point) improvement in KCCQ-TSS,[4]; at 8 months,15 (11-25)
same,patients with large (≥15 point) improvement in KCCQ-TSS,[4]; at 8 months,54.0%
same,patients with moderate (≥10 point) improvement in KCCQ-TSS,[4]; at 8 months,54.5%
same,"Change in KCCQ total symptom score at 8 mo., win-ratio (95% CI)","[4]; dapagliflozin vs placebo, No T2DM","1.15 (1.05, 1.26)"
same,"Change in KCCQ total symptom score at 8 mo., win-ratio (95% CI)","[4]; dapagliflozin vs placebo, T2DM","1.22 (1.11, 1.35)"
same,"Change in KCCQ total symptom score at 8 mo., Win ratio (95% CI)","[4]; dapagliflozin vs placebo, all patients",1.18 (1.11-1.26)†
same,"Change in KCCQ total symptom score at 8 mo., Win ratio (95% CI)","[4]; dapagliflozin vs placebo, all patients, listed as dapagliflozin",1.18
same,odds ratio (95% CI) for large (≥15 point) improvement in KCCQ-TSS,[4]; [6],1.14 (1.07-1.22)
same,odds ratio (95% CI) for moderate (≥10 point) improvement in KCCQ-TSS,[4]; [6],1.15 (1.08-1.22)
same,odds ratio for deterioration (≥5 point decline) in KCCQ-TSS,[4]; [6],0.84
same,odds ratio for ≥5 point improvement in KCCQ-TSS,[4]; [6],1.15
same,patients with deterioration in KCCQ-TSS,[4]; individuals with diabetes,24.5%
same,patients with ≥5-point improvement in KCCQ-TSS,[4]; individuals with diabetes,58.9%
same,odds ratio for deterioration in KCCQ-TSS,[4]; [7],"0.78 (0.71, 0.87)"
same,odds ratio for ≥5-point improvement in KCCQ-TSS,[4]; [7],"1.20 (1.09, 1.31)"
same,patients with an increase of at least 5 points in KCCQ-TSS,[4]; individuals without diabetes,57.7%
same,patients with significant deterioration in KCCQ-TSS,[4]; individuals without diabetes,26.0%
same,odds ratio for increase of at least 5 points in KCCQ-TSS,[4]; [8],"1.12 (95% CI 1.03, 1.22)"
same,odds ratio for significant deterioration in KCCQ-TSS,[4]; [8],"0.88 (0.81, 0.97)"
same,"KCCQ-TSS increase, points more with dapagliflozin compared to placebo",[4]; patients with diabetes,3.5 (95% CI 1.6-5.4) points
same,"KCCQ-TSS increase, points more with dapagliflozin compared to placebo",[4]; patients without diabetes,2.2 (95% CI 0.7-3.7) points
